Like-named read-outs stand apart in the source and are kept apart here. Each block holds one molecule with its values, some of them ahead of it.
How the values were obtained:
[1] = test system: human keratinocytes; conditions: after 6 hours; 32,000 dpm, 1.3 μM; cited from earlier work
[2] = test system: human keratinocytes and fibroblasts; conditions: C60 suspension; cited from earlier work
[3] = Air sensitivity; assay type: physicochemical
From the text: While previous work reported in the literature performed HPLC under aerobic conditions, (see for example Funasaka et al. 1995) these studies determined that anaerobic controls better preserved the fraction of Gd@C82 in solution. […] The fraction containing the Gd@C82 was identified using MS. The solubility of fullerenes in o-xylene is about three times that of toluene and this greatly increases the ratio of fullerenes in solution to those retained on the stationary phase. Therefore, the capacity or amount of fullerenes purified per injection was very large. Each injection contained 2 ml of saturated fullerene o-xylene solution (about 30 mg of fullerenes).

[4] = test system: anti-fullerene antibodies (immune serum); assay: Specificity of the immune response by double diffusion in agar; assay type: binding, mouse
Procedure: (§1) Specificity of the response was determined by two procedures: double diffusion in agar (22) and competitive inhibition, as determined by ELISA using RSA and BSA conjugates of the fullerenes, as well as the oligo lysine derivatives. The fullerenes themselves were not soluble enough in aqueous solutions.
Specificity of the immune response first was determined by double diffusion in agar.
Confluent lines of precipitation were seen associated with wells 1-5 with a spur between wells 2 and 3, pointing toward 3, i.e., toward 1-BSA. This finding is evidence of a population of antibodies reactive with both 1 and 2, with an additional population specific for the carrier protein of the immunogen, 1-TG. The identity of precipitation with 1 and 2 is evidence for the lack of participation of the linker group, which is missing from 2. […] Anti-TG also could be detected by ELISA (below).

[5] = test system: anti-fullerene antibodies binding to 1-RSA; assay: ELISA inhibition of antibody binding to 1-RSA; parameters: species or system mouse
Procedure: After a total of three immunizations at 3-week intervals, confirmation of an immune response was determined by direct ELISA in which polystyrene plates (Corning) were coated with the 1-RSA conjugate (0.5 mg/ml in 0.1 M NaHCO3, pH 9), and binding of preimmune and immune sera were determined by standard procedures. Development was with horseradish peroxidase-labeled goat anti-mouse IgG (Sigma), which tested negative for crossreaction with an IgM preparation. The substrate used was o-phenylenediamine.
as §1
The adenosine conjugate had been synthesized using the same strategy used for the fullerenes, i.e., linkage to the epsilon amino groups of the lysines via an N-hydroxysuccinimide ester derivative.
Specificity also was determined by ELISA inhibition studies (FIG. 6). Binding to 1-RSA was inhibited by 1-RSA, 1-BSA, 1-TG, 3-pentalysine, 2-pentalysine, and 1-pentalysine. Inhibition by 2-pentalysine is additional evidence for nonparticipation of the linker group, i.e., specificity for the C60 moiety. […]

[6] = Atomic force microscopy of antibody binding to SWNT
Procedure: C60 Antibodies on SWNTs were directly imaged by atomic force microscopy. SWNT ropes on mica were initially imaged, the surface was then exposed to antibody solution, and finally; the same SWNT was imaged again in air. This sequence distinguishes any preexisting surface particles from bound antibodies. Three drops of aqueous SWNT suspension (0.064 mg/mL in Triton 100×surfactant, from Tubes@Rice) were spun onto a freshly cleaved mica surface. One drop of fullerene-specific antibody(0.00125 mg/mL in 10 mM phosphate buffer, 150 mM NaCl, pH 7.3) was then deposited onto the surface. Liquid was removed by glass piper after 8 min, and the sample was dried in air. The sample was then washed with 60 drops of water while spinning to remove weakly bound, physisorbed antibody layers. The same SWNT was then imaged in FIG. 24. A significant number of objects are adsorbed on the nanotube, in previously clean regions, and on the mica substrate. […] The mica antibody images are similar in height, width, and dimpled appearance to those previously reported for monoclonal mouse IgG1 on mica (10).
In a separate experiment, we mixed an aqueous SWNT suspension with an anti-fullerene antibody solution and then imaged the SWNTs on mica. One drop of antibody solution (0.25 mg/mL) was mixed with 5 mL of SWNT suspension (0.064 mg/ml) and cooled at 5° C. for 2 h. Three drops of this mixture were spun on a freshly cleaved […] and imaged without washing.

Molecule: c12c3c4c5c1c1c6c7c2c2c8c3c3c9c4c4c%10c5c5c1c1c6c6c%11c7c2c2c7c8c3c3c8c9c4c4c9c%10c5c5c1c1c6c6c%11c2c2c7c3c3c8c4c4c9c5c1c1c6c2c3c41 [Compound C60, fullerene-C60]
applied radioactivity taken up by the keratinocytes [1]: approximately 50%
effect on the rate of thymidine uptake [2]: no effect

Molecule: Gd@C82(OH)x
air sensitivity [3]: does not appear to be air sensitive

Molecule: rabbit serum albumin [RSA]
inhibition of binding to 1-RSA (ELISA) [5]: No inhibition

The next lines start with results.

inhibition of binding to 1-RSA (ELISA) [5]: No inhibition
Molecule: bovine thyroglobulin [TG]
precipitation in double diffusion in agar ([4]; TG solution diluted 5-fold): line of precipitation was seen
precipitation in double diffusion in agar ([4]; undiluted antigen solutions): no visible precipitate

binding of antibody to SWNT (AFM image) [6]: antibodies on the nanotube and on mica
binding of antibody to SWNT (AFM image) ([6]; listed as anti-fullerene/anti-nanotube antibody): bound to a nanotube
binding of antibody to SWNT (AFM image) ([6]; listed as monoclonal IgG C60-specific antibody): specifically binds
B1: fullerene-specific antibody: monoclonal antibody produced by hybridoma 1-10F-8A (ATCC PTA-279) (antibody, V domains shown)
VH: MGCSWGMLFLLSITAGVHCQVHLQQSGPELVRPGASVKISCKTSGYVFSSSWMNWVKQRPGQGLKWIGRIYPGNGNTNYNEKFKGKATLTADKSSNTAYMQLSSLTSVDSAVYFCATSSAYWGQGTLLTVSA
VL: DIQMTQTTSSLSASLGDRVTFSCSASQDINNYLNWYQQKPDGTIKLLIYYTSSLRSGVPSRFSGSGSGTDYSLTINNLEPEDIATYFCQQYSRLPFTFGSGTKLEIKRK
modifications: Mouse [murine]; Mouse

Reference: patent publication US20030113940A1, “Antibodies specific for nanotubes and related methods and compositions” (priority 2001, published 2003)
